Measured values reported in ChEMBL document CHEMBL1201862, “PubChem BioAssay data set” (2004).
Counter-ions that a name gives are not always drawn. The source made the active and inactive calls. Rule as the data show it, for most assays here: actives have a measured EC50 and inactives only a lower limit.

Experiments:
[1] = biological target: Luciferin 4-monooxygenase (Photinus pyralis, UniProt P08659); assay: firefly luciferase enzyme inhibitors, dose response, biochemical, luminescence (AID 1891)
Luciferin 4-monooxygenase, sequence (P08659 whole entry): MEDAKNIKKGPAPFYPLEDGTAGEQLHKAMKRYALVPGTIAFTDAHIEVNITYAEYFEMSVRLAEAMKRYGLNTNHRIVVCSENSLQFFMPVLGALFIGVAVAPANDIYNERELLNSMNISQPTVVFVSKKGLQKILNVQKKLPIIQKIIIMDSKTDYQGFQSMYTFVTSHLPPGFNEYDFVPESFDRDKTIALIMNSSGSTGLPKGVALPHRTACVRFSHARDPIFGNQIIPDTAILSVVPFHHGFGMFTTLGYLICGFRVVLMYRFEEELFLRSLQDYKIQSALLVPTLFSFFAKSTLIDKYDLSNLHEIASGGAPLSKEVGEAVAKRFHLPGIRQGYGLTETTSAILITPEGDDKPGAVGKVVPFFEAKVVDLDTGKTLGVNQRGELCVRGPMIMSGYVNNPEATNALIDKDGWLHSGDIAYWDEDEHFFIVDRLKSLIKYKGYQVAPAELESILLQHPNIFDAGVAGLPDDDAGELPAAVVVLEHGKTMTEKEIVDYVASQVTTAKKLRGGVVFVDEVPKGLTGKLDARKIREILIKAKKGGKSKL

[2] = Luminescence Cell-Based Dose Confirmation HTS to Identify Inhibitors of Platelet Dense Granule Release. [Related pubchem assays: 1663 (Primary HTS), 1678 (Summary of Project)]; assay type: functional
[3] = biological target: T1, Polyadenylate-binding protein 1 (Homo sapiens, UniProt P11940); assay: PABP1 MLLE–PAM2 interaction inhibitors, dose response, miRNA deadenylation inhibitor project, biochemical, fluorescence polarization, Cy5-PAM2 peptide, secondary (AID 602260); assay type: functional; conditions: read-out: IC50_Mean
T1 sequence (P11940 whole entry): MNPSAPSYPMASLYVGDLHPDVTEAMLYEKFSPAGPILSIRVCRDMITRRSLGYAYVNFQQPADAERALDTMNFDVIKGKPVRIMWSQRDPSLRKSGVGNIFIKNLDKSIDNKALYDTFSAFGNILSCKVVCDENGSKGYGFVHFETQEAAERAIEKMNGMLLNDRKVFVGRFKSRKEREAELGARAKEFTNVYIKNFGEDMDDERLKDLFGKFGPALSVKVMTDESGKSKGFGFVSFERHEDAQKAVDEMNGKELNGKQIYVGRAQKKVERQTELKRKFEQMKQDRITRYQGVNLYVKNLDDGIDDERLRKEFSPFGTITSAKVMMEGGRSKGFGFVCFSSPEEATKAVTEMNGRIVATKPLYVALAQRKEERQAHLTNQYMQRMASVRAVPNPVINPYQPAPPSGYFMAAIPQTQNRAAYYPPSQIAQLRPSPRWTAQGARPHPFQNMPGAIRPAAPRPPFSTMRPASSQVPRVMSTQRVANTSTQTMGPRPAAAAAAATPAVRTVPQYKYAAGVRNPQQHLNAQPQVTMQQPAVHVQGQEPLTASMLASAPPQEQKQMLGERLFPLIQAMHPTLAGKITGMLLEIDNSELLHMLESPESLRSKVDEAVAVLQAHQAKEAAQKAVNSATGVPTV

[4] = biological target: T1, Polyadenylate-binding protein 1; assay: PABP1 MLLE–PAM2 binding inhibitor potency, dose response, biochemical, fluorescence polarization, FITC-PAM2 peptide (AID 602259); assay type: functional; conditions: read-out: IC50_Mean
[5] = inhibitors of firefly luciferase expression or activity, dose response, H4 neuroglioma cells, luminescence (AID 1990); assay type: functional, cell-based
[6] = Luminescence Cell-Based Dose Response HTS to Identify Inhibitors of 5'UTR Stem-Loop Driven Prion Protein mRNA Translation in H4 Neuroglioblastoma Cells. [Related pubchem assays: 1827 (Project Summary), 1813 (Primary HTS)]; assay type: functional
[7] = inhibitors of SNCA 5'UTR-driven reporter translation, confirmation, H4 neuroglioma cells, luminescence (AID 1988); assay type: functional, cell-based
[8] = test system: Streptococcus sp. 'group A'; assay: growth inhibition of control SK(-) GAS strain, dose response, counter-screen for streptokinase expression inhibitor project, luminescence, kanamycin, BacTiterGlo, confirmation (AID 1900); assay type: functional, organism-based
Streptococcus = assay: Group A Streptococcus viability loss, dose response, counter-screen for streptokinase expression inhibitor project, luminescence, BacTiterGlo (AID 1915); assay type: functional, organism-based;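 also: potency for reduction of bacterial viability or growth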
INS1 = assay: beta cell apoptosis inhibitors, cytokine rescue, dose response, luminescence, retest (AID 449756); assay type: functional, cell-based; conditions: Rattus norvegicus;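 also: cell death triggered by IL-1 beta plus TNF-alpha plus IFN-gamma mixture; protective hits raise ATP signal compared with cytokine alone wells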
[9] = NIH-3T3 fibroblast cytotoxicity, dose response, cytotoxicity control, cell-based, fluorescence, Alamar Blue, secondary assay (AID 2327); assay type: functional;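 also: NIH-3T3 mouse fibroblasts cultured with fluconazole at 8 µg/mL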
[10] = C. albicans growth with fluconazole, confirmation, fluorescence, retest (AID 2467); assay type: functional, cell-based
[11] = biological target: T2, Heat shock factor protein 1 (Mus musculus, UniProt P38532); assay: HSF1 potentiators in luciferase reporter cells, confirmation, cell-based, NIH3T3, luminescence, dose retest (AID 435004); assay type: functional;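 also: stress induced by proteasome inhibitor MG132 added 30 min after compound; luciferase reporter driven by HSF1 response element in NIH3T3 cells; actives raise luminescence as potentiators of the MG132 stress response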
T2 sequence (P38532 whole entry): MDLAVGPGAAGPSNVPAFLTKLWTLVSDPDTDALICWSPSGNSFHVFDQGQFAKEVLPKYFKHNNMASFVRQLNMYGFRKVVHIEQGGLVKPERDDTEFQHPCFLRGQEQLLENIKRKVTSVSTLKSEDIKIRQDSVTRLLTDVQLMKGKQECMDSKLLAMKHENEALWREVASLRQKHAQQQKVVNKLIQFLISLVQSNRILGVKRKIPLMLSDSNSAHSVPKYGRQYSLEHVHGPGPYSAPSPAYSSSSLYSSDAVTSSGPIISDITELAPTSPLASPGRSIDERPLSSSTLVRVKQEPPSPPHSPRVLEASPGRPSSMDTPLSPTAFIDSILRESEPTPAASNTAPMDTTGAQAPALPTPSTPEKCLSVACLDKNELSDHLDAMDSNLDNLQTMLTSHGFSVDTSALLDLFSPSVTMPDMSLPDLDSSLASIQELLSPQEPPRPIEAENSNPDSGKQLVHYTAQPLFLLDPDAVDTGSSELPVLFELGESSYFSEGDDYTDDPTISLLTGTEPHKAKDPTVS

[12] = growth suppression of PTEN-null colon cells, dose response, cell-based, HCT116 PTEN knockout (AID 1047); assay type: functional;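 also: HCT116 colon tumor cells with PTEN knocked out; cells exposed to compound for 60 hours before readout; potency for loss of cell viability measured by luminescence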
[13] = growth suppression of beta-catenin-knockout colon cells, dose response, cell-based, HCT116, human colon tumor (AID 1045); assay type: functional;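 also: HCT116 colon tumor cells with beta catenin knocked out; cells exposed to compound for 60 hours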
[14] = Luminescence Cell-Based Dose Retest to Confirm Inhibitors of Cancer Stem Cells. [Related pubchem assays (depositor defined):AID2717, AID2721]; assay type: functional; conditions: Homo sapiens

O=C(Nn1cnnc1)c1ccccc1CCc1ccccc1
EC50 [1]: > 112 µM (not active) | EC50 [2]: > 112 µM (not active)

COc1ccc(C(=O)NC2(C(F)(F)F)N=C3SCCN3C2=O)cc1 (stereo not drawn)
IC50 [3]: > 66 µM (inactive) | IC50 [4]: > 66 µM (inactive)

Cc1ccccc1C(=O)NCCNc1ccc([N+](=O)[O-])cc1
EC50 [5]: > 120 µM (not active) | EC50 [6]: > 120 µM (not active) | EC50 [7]: > 120 µM (not active)

Cc1c(NC(=S)NC(=O)c2cccc3ccccc23)cccc1C(=O)O
IC50 [3]: > 66 µM (inactive) | IC50 [4]: > 66 µM (inactive)

CCOC(=O)C1=C(C)N(C)C(C)=C(C(=O)OCC)C1c1ccc(C(=O)OC)cc1
EC50 [5]: 35.5 µM (active) | EC50 [6]: > 120 µM (not active) | EC50 [7]: 37.9 µM (active)

Cc1c(N=N/C(C#N)=C(\O)c2ccc(Cl)cc2)c(=O)n(-c2ccccc2)n1C
EC50 [5]: 9.5 µM (active) | EC50 [8]: 0.528 µM (active) | EC50 [6]: 9.48 µM (active) | EC50 [7]: 8.7 µM (active) | EC50 (Streptococcus): 9.3 µM (active) | AC50 (INS1): 2.08 µM (active)

CCC(=O)NCCc1nc2ccccc2n1Cc1ccccc1
EC50 [1]: > 112 µM (not active) | EC50 [2]: > 112 µM (not active)

Nc1cccc(-c2nc3ccccc3s2)c1
EC50 [1]: 3.81 µM (active) | EC50 [2]: 7.77 µM (active)

Cc1ccc(S(=O)(=O)CC(=O)Nc2nnc(C(C)(C)C)s2)cc1
IC50 [3]: > 66 µM (inactive) | IC50 [4]: > 66 µM (inactive)

CC1CCN(c2ccc(NC(=S)NC(=O)c3ccc(-c4cccc([N+](=O)[O-])c4)o3)cc2)CC1
IC50 [3]: > 66 µM (inactive) | IC50 [4]: > 66 µM (inactive)

Cc1ccccc1-n1c(=O)cc(N2CCN(C(=O)c3ccco3)CC2)[nH]c1=O
EC50 [1]: > 112 µM (not active) | EC50 [2]: > 112 µM (not active)

O=C(O)CC(SCC(=O)Nc1ccc(S(=O)(=O)N2CCCC2)cc1)C(=O)O (stereo not drawn)
IC50 [3]: > 66 µM (inactive) | IC50 [4]: > 66 µM (inactive)

COc1cccc(-n2c(N)c(C(=O)Nc3c(C)n(C)n(-c4ccccc4)c3=O)c3nc4ccccc4nc32)c1
EC50 [1]: > 112 µM (not active) | EC50 [2]: > 112 µM (not active)

COc1ccc(Nc2ccc(N3C(=O)CC(C)C3=O)cc2[N+](=O)[O-])cn1 (stereo not drawn)
IC50 [3]: > 66 µM (inactive) | IC50 [4]: 48.4 µM (inactive)

Cc1nc(NS(=O)(=O)c2ccc(Br)cc2)c2c3c(sc2n1)CCC3
EC50 [9]: > 160 µM (inactive) | EC50 [10]: 1.93 µM (active)

Cc1cc2oc(=O)cc(CSc3nc(N)cc(N)n3)c2cc1C
EC50 [11]: > 260 µM (inactive)

COc1cc(SC#N)ccc1/N=C/c1c(C)[nH]n(-c2ccc(C)c(C)c2)c1=O
EC50 [12]: 8.81 µM (active) | EC50 [13]: 8.18 µM (active) | AC50 [14]: 1.41 µM (active) | AC50 (INS1): 4.24 µM (active)

CN(C)CCCN1c2ccccc2CCc2ccc(Cl)cc21 [CLOMIPRAMINE HYDROCHLORIDE]
EC50 [12]: 9.89 µM (active) | EC50 [13]: 10.3 µM (active)
